Patent US20190380965A1 (priority 2018, published 2019)
Like-named read-outs stand apart in the source and are kept apart here.

Format: physicochemical
Details: for drug dissolved in water: 500 mg flucytosine added to 10 mL water
Description: The powder and granule pharmaceutical compositions of the present invention dissolve or suspend when added to water quickly. This pharmaceutical composition is therefore termed as “quick water-dispersing”. The term “quick” herein is defined as less than 2 to 3 minutes when shaken gently. In other words, when the granules are added to water, and gently mixed, a suspension is formed in less than 2 to 3 minutes. The “quick water-dispersing” property was achieved by selecting a correct particle size of suspending agent(s) which is the novelty of this invention. The suspension is achieved by simple mixing of powder in water—without use of complex instruments which are available in the home-environment to patients. […] After reaching the gastro-intestinal tract, the remaining drug dissolves. The pharmaceutical compositions according to the present invention provide for an immediate release of the Flucytosine from the dosage form.
USP II apparatus were used and UV-visible spectrometer was used for quantification of Flucytosine from dissolution. […] When we combine other antifungal agents in this formulation, the dissolved fraction of flucytosine will change.

Q: With Nc1nc(=O)[nH]cc1F [Flucytosine, 5-fluorocytosine] as the compound, how does the “drug dissolved in water” value read?
A: about 150 mg

Q: And the “drug dissolved in water” value (listed as flucytosine)?
A: 150 mg

Q: And the “water needed to dissolve the drug” value (dose of 500 mg flucytosine)?
A: 33.3 mL
